From ChEMBL document CHEMBL1142021, “Aglycon specificity profiling of alpha-glucosidases using synthetic probes” (Bioorg Med Chem Lett, 2005)

Experiments:
[1] = biological target: T1, Alpha-glucosidase (Geobacillus stearothermophilus) (UniProt P94451); test: Inhibition of Bacillus stearothermophilus glucosidase (of family 13 alpha-glucosidase) at 1 umol/mL
T1 sequence (whole entry): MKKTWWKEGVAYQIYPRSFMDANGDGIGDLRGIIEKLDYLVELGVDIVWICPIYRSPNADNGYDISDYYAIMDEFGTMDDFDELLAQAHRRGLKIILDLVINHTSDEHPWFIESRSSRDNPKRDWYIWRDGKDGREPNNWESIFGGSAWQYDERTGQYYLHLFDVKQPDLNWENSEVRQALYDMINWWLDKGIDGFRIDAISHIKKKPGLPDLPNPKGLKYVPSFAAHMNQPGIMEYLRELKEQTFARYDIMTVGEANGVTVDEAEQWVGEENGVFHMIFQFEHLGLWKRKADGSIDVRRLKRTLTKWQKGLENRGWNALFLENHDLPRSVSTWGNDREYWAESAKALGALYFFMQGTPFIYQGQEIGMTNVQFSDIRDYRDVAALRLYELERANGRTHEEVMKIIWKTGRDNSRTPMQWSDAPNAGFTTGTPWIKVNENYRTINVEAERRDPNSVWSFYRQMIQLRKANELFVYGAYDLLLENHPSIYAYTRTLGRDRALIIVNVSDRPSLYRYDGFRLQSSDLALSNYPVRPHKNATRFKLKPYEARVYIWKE

[2] = Inhibitory concentration for Saccharomyces cerevisiae glucosidase (of family 13 alpha-glucosidase) at 1 umol/mL
[3] = biological target: T2, Alpha-glucosidase (Apis mellifera) (UniProt Q17058); test: Inhibition of family 13 alpha-glucosidase isoform II from honey bee; conditions: concentration not given here
T2 sequence (whole entry): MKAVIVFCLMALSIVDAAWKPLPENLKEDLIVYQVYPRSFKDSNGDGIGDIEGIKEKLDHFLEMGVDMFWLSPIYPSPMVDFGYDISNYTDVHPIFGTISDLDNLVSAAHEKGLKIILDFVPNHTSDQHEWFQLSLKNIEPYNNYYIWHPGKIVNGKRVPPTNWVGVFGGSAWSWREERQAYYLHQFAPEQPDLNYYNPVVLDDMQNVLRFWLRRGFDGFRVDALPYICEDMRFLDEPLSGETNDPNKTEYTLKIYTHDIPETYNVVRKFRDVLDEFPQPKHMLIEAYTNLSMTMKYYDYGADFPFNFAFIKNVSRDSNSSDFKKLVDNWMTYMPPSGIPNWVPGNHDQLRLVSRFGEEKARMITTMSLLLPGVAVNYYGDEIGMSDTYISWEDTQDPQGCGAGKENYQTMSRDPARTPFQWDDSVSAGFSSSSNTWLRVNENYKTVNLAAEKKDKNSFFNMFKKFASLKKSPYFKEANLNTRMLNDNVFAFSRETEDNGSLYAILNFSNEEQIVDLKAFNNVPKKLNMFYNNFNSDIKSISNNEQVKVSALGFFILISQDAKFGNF

[4] = Competitive Inhibition constant for Saccharomyces cerevisiae glucosidase
[5] = biological target: T3, Lysosomal alpha-mannosidase (Homo sapiens) (UniProt O00754); test: Inhibition of alpha-Mannosidase; conditions: concentration not given here
T3 sequence (whole entry): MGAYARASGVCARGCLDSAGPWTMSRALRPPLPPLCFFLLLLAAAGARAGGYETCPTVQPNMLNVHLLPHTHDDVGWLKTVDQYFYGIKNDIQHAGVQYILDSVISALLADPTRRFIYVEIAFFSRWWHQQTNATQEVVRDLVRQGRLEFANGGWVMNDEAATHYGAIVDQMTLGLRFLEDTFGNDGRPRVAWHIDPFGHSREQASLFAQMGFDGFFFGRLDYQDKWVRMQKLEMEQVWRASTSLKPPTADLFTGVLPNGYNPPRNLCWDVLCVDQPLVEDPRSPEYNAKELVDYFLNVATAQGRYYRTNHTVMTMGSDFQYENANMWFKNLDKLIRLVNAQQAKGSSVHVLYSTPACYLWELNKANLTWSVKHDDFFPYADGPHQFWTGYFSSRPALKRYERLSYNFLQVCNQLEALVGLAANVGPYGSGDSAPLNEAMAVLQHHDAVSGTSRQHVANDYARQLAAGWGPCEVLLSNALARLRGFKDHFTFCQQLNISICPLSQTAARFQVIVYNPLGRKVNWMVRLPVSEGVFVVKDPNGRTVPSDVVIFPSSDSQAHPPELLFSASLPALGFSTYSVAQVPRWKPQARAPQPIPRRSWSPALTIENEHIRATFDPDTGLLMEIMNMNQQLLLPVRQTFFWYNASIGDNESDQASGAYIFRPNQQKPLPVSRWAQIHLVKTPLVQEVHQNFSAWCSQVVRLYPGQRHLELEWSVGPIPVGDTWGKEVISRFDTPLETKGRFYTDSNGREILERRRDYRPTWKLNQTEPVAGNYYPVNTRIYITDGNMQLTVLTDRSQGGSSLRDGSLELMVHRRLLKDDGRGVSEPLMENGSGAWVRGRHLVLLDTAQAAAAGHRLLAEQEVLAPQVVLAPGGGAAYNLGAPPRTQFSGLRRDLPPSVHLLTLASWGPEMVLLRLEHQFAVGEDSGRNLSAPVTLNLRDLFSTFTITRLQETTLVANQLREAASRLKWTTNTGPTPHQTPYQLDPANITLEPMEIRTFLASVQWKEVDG

[6] = biological target: T2, Alpha-glucosidase (Apis mellifera); test: Inhibition of family 13 alpha-glucosidase isoform I from honey bee; conditions: concentration not given here

SMILES	inhibition [1]	other results
O=C(CO)NCC1OC(CO)C(O)C(O)C1O (stereo not given)	< 1%	
CC(=O)NCC1OC(CO)C(O)C(O)C1O (stereo not given)	< 1%	
CC(C)(C)C(=O)NCC1OC(CO)C(O)C(O)C1O (stereo not given)	< 1%	
O=C(NCC1OC(CO)C(O)C(O)C1O)c1ccccc1 (stereo not given)	< 1%	IC50 [2]: 449 µM; inhibition [3]: 12.3%; Ki [4]: 500 µM
O=C(CCO)NCC1OC(CO)C(O)C(O)C1O (stereo not given)	< 1%	
O=C(CCCO)NCC1OC(CO)C(O)C(O)C1O (stereo not given)	< 1%	inhibition [5]: < 1%; inhibition [6]: < 1%
O=C(CCCCCO)NCC1OC(CO)C(O)C(O)C1O (stereo not given)	< 1%	
O=C(CCCCO)NCC1OC(CO)C(O)C(O)C1O (stereo not given)	100%	IC50 [2]: 55.5 µM; Ki [4]: 130 µM
